In patent publication US5719151A, “Substituted benzene compounds” (priority 1990, dated 1998):
Where two headings read alike, the source gives them in different places.

What was measured:
[1] = tested on: Trypanosoma brucei rhodesiense (GUP 2814); assay: Antigenic switching in Trypanosoma brucei rhodesiense (GUP 2814) in axenic culture, ILTat 1.63 to ILTat 1.22; assay type: cell-based
Description: (§1) 1. TRYPANOSOMES: Stabilates of two clones, GUP 2889 and GUP 2814 were used.
Specific rabbit antisera and ascites fluid against specific Variable Antigen Types were used for trypanolysis and immunofluorescence at the appropriate dilutions.
(§2) Antibody mediated lysis of a specific VAT of bloodstream form trypanosomes was performed by incubating an appropriate aliquot of a recently prepared trypanosome suspension at room temperature for 1 hour, in appropriately diluted specific antibody and guinea pig complement. The trypanosomes were observed and counted with inverted phase-contrast microscopy at a magnification of 150× to check for viability and to observe lysed trypanosomes, which appeared stumpy and vacuolated.
(§3) Cultures were initiated with aliquots of the above prepared trypanosome suspension. Duplicate T25 flasks, with 10 ml of medium were prepared for each experimental parameter examined. In each experiment the trypanosome density was determined at the initiation of the culture and at the end of the axenic culture period (usually after 18-24 hours) using a Neubaurer haemocytometer.
The prevalences of VATs in each cultures population were determined using immunofluorescence as follows: contents of one of the duplicate flasks (or both) were transferred to a universal bottle, and the trypanosomes were sedimented by centrifugation at 3,000 rpm at room temperature in a bench-top MSE centrifuge. The trypanosomes were resuspended in 10 μl of 20%(v/v) FCS supplemented EMEM* medium. Samples of this suspension were applied as smears to clean microscope slides coated with 0.1% poly-L-Lysine for immunofluorescence (IF) analysis for the frequency of specific VATs. Prevalence estimates of VATs were based on counts of more than 1000 labeled trypanosomes per flask.
Indirect immunofluorescence on acetone-fixed trypanosomes on slides was performed essentially according to the method of van Meirvenne et al., (Ann. Soc. Belge Med. Trop. (1975) 55: 1-23), using appropriately diluted rabbit antiserum or undiluted monoclonal lantibodies derived from hybridoma culture supernatants. Trypanosomes were visualized with fluorescein isothiocyanate(FITC)-labeled conjugated anti rabbit-FITC antibodies (Sigma:No.F-0382) for VAT 1.22 and 1.3, and with anti-mouse-FITC (Sigma:No.F-0257) for VATs 1.64c, 1.63a and 1.61. These secondary antibodies were diluted in PBS (pH8.0) and also contained Evans Blue (1:10,000 w/v) and Ethidium Bromide (5 μg/ml) as a counterstain.
Estimates of the prevalence of particular trypanosome VATs were based on counts of at least 200 trypanosomes, and at least 1000 trypanosomes were counted if the frequency of positive organisms were very low.
The rate of switching was estimated essentially as described by Turner and Barry (Parasitology (1989) 99: 67-75). Briefly, the size of the trypanosome population expressing aminor VAT was calculated at the time points […] as Nt1 and Nt2 respectively, from the mean total population density and from the prevalence of that VAT in the population.
(§4) The instantaneous rate of switching/cell/generation, σi, has been calculated. These values of σ are estimates of the per capita rate for switching to minor VATs. However, these estimates have been made in populations manipulated to consist of a major VAT, the prevalence of which is much higher than that of minor VATs; switching from minor to major VATs has therefore been assumed to be negligible, as has interswitching between minor VATs. Growth rates, r, have been expressed as population doubling times Td, where Td=loge2/r. Switching rates values are presented in the tables as finite, of, rate estimates.
Two clones of Trypanosoma brucei rhodesiense, GUP 2889 and […] were initiated in culture with viable trypanosomes after in vitro trypanolysis of heterotype VAT 1.22 with GUPM 27.1 monoclonal antibody. Viable populations of these trypanosomes were incubated with various concentrations of the poly(ADP-Ribose)polymerase inhibitors. […]

[2] = tested on: Trypanosoma brucei rhodesiense; assay: Growth of Trypanosoma brucei rhodesiense in axenic culture (growth inhibition); assay type: cell-based
Description: as §1
Prior to propagation in vitro cell free culture conditions the parasites from stabilates were expanded in CD1 (8-9 week old) female mice. Infected mouse blood obtained by cardiac puncture in EMEM* with 20 U/ml heparin was used for the preparation of blood smears for immunofluorescence analysis.
as §2, §3, §4
Two clones of Trypanosoma brucei rhodesiense, GUP 2889 and […] were initiated in culture with viable trypanosomes after in vitro trypanolysis of heterotype VAT 1.22 with GUPM 27.1 monoclonal antibody. Viable populations of these trypanosomes were incubated with various concentrations of the poly(ADP-Ribose)polymerase inhibitors. The effect of each concentration of inhibitor was tested in duplicate in T25 culture flasks set up for the axenic culture inhibition experiments. Growth was monitored after 24 hours of incubation at 37° C. in 4-5% CO2 in air. Relative growth inhibition and frequency of antigenic switching of were calculated.
In this assay a continuously growing bloodstream form trypanosome population was incubated in serial inhibitor dilutions in T25 culture flasks using an inoculum of 2×10^4 ·1×10^5 trypanosomes per ml. After an incubation period of 24-48 hours in axenic culture at 37° C. in a 4-5% CO2 incubator, trypanosomes were counted using a haemocytometer and growth inhibition was determined based on the number of generations (kt) of inhibitor treated cultures compared to controls. […] Growth is reduced by up to 17% when 3-N-formylluminol(3-N-FL) is present in the concentration range of 50-400 μM, Table 7.

[3] = target: poly(ADP-ribose)polymerase (Homo sapiens, UniProt P09874); assay: Determination of inhibitory effect on poly(ADP-ribose)polymerase (enzyme activity, Ki, Km); assay type: biochemical
poly(ADP-ribose)polymerase, sequence (P09874 whole entry): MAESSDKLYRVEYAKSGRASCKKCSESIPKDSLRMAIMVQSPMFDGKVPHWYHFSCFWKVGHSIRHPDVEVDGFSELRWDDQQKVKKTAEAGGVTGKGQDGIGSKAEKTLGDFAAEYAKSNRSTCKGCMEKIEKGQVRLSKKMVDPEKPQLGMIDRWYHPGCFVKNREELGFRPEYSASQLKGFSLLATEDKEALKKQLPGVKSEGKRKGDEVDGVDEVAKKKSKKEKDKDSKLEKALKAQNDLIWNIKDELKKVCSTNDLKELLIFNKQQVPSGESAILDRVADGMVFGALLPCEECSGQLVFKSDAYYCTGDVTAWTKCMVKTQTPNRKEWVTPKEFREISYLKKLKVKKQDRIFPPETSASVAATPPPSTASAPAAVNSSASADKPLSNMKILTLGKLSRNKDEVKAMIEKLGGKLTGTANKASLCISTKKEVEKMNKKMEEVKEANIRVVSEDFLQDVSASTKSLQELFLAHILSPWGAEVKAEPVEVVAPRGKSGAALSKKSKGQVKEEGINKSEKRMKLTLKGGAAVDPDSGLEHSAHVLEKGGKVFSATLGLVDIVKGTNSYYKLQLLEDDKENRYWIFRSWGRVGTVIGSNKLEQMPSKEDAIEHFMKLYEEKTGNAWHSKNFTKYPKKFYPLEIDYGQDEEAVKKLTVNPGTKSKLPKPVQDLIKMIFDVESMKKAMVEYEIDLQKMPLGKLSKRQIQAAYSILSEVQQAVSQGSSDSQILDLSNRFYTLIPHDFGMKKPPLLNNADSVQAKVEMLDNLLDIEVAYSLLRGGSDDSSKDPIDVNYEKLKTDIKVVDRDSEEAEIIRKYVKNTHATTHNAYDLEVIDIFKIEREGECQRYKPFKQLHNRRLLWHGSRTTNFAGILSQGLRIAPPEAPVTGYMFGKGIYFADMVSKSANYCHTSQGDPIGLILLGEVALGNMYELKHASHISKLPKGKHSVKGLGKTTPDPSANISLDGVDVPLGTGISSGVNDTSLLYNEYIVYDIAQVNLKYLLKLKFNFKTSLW
Description: The enzyme activity was assayed by standard procedures (Murray, B. et al., Mutation Research (1986) 165:191-198). This reference also describes the estimation of the Km (Michaelis Constant) values. The estimation of the Ki (inhibitory constant) values was performed by calculating the Km value in the presence or absence of known concentrations of the enzyme inhibitor. Standard biochemical calculations were then used to calculate the Ki value. The smaller K1 values indicate stronger inhibition. The degree of enzyme inhibition shown in the Table was estimated by measuring the enzyme activity in the presence and absence of the indicated concentrations of inhibitor.

NC(=O)c1cccc(NC=O)c1 [Compound 1, 3-formylaminobenzamide]
switching frequency, from ILTat 1.63 to 1.22 ([1]; 1 mM, Horse Serum (Bristol), two of three experiments): reproducible reduction of switching frequency | σf (finite switch rate per trypanosome per generation) ([1]; DHS/EMEM, 1.0 mM, control 210.8): 117.0 x10^-2 | σf (finite switch rate per trypanosome per generation) ([1]; ES/EMEM (first experiment), 1.0 mM, control 5.3): 2.26 x10^-2 | σf (finite switch rate per trypanosome per generation) ([1]; ES/EMEM (second experiment), 1.0 mM, control 2.17): 0.94 x10^-2 | σf (finite switch rate per trypanosome per generation) ([1]; ES/EMEM, 0.5 mM, control 13.65): 0.95 x10^-2 | σf (finite switch rate per trypanosome per generation) ([1]; FCS/EMEM, 1.0 mM, control 0.46): 0.72 x10^-2 | activity at 1000 µM ([1]; Trypanosoma brucei, RHODESIENSE, read-out: RAS (relative antigenic switching), DHS/EMEM, 1.0 mM, control 100): 55.5% | activity at 1000 µM ([1]; Trypanosoma brucei, RHODESIENSE, read-out: RAS (relative antigenic switching), ES/EMEM (first experiment), 1.0 mM, control 100): 42.6% | activity at 1000 µM ([1]; Trypanosoma brucei, RHODESIENSE, read-out: RAS (relative antigenic switching), ES/EMEM (second experiment), 1.0 mM, control 100): 43.5% | activity at 500 µM ([1]; Trypanosoma brucei, RHODESIENSE, read-out: RAS (relative antigenic switching), ES/EMEM, 0.5 mM, control 100): 7% | activity at 1000 µM ([1]; Trypanosoma brucei, RHODESIENSE, read-out: RAS (relative antigenic switching), FCS/EMEM, 1.0 mM, control 100): 136% | reduction in growth rate ([2]; 0.5 to 2.0 mM): 7% | kt (generation number) ([2]; GUP 2814, DHS/EMEM, 1.0 mM, control 2.44): 2.29 doublings | kt (generation number) ([2]; GUP 2814, ES/EMEM (first experiment), 1.0 mM, control 2.02): 1.56 doublings | kt (generation number) ([2]; GUP 2814, ES/EMEM (second experiment), 1.0 mM, control 2.36): 2.14 doublings | kt (generation number) ([2]; GUP 2814, ES/EMEM, 0.5 mM, control 1.95): 2.09 doublings | kt (generation number) ([2]; GUP 2814, FCS/EMEM, 1.0 mM, control 2.143): 1.92 doublings | activity at 500 µM ([2]; Trypanosoma brucei, RHODESIENSE, 0.5 mM, n = 6, control 1.00, read-out: Relative Growth Rate (S.D., n)): 105 ± 13% | activity at 1000 µM ([2]; Trypanosoma brucei, RHODESIENSE, 1.0 mM, n = 11, control 1.00, read-out: Relative Growth Rate (S.D., n)): 103 ± 23% | activity at 2000 µM ([2]; Trypanosoma brucei, RHODESIENSE, 2.0 mM, n = 6, control 1.00, read-out: Relative Growth Rate (S.D., n)): 93 ± 22% | activity at 1000 µM ([2]; Trypanosoma brucei, RHODESIENSE, GUP 2814, DHS/EMEM, 1.0 mM, control 100, read-out: Relative Growth): 93.9% | activity at 1000 µM ([2]; Trypanosoma brucei, RHODESIENSE, GUP 2814, ES/EMEM (first experiment), 1.0 mM, control 100, read-out: Relative Growth): 77.2% | activity at 1000 µM ([2]; Trypanosoma brucei, RHODESIENSE, GUP 2814, ES/EMEM (second experiment), 1.0 mM, control 100, read-out: Relative Growth): 90.8% | activity at 500 µM ([2]; Trypanosoma brucei, RHODESIENSE, GUP 2814, ES/EMEM, 0.5 mM, control 100, read-out: Relative Growth): 107% | activity at 1000 µM ([2]; Trypanosoma brucei, RHODESIENSE, GUP 2814, FCS/EMEM, 1.0 mM, control 100, read-out: Relative Growth): 89.6% | inhibition at 5 µM ([3]; 5.0 μM, read-out: Inhibitor Activity (%)): 66% | Ki ([3]; poly(ADP-ribose)polymerase, read-out: Ki (Inhibition Constant)): 1610 ± 150 nM
